The source of these data is PubChem BioAssay AID1745844 (Carcinogenic Potency Database (CPDB), 2022).

The structures appear in SMILES notation. Several values for one entry are separate records, joined by “and”; a condition that tells them apart may be missing. Equal entries are not always repeated. Activity calls are given as the source filed them. No rule for the calls is given here.

This data set relates to rodent lifetime carcinogenesis bioassay, tumor incidence TD50. Briefly: chronic cancer bioassays in animals – CPDB, compiled studies (AID 1745844).

With `CCC1(c2ccccc2)C(=O)NCNC1=O`, the TD50 is, setting by setting: (mouse, strain B6C3F1, females, in feed, site: any site (literature study), lesion: several types, types named in the paper, dosed 101 weeks, study length 104 weeks) 163 mg/kg/day; (mouse, strain B6C3F1, females, in feed, site: liver, lesion: hepatoblastoma + hepatocellular carcinoma, dosed 101 weeks, study length 104 weeks) 98.7 mg/kg/day; (mouse, strain B6C3F1, females, in feed, site: liver, lesion: hepatoblastoma, dosed 101 weeks, study length 104 weeks) 1390 mg/kg/day; (mouse, strain B6C3F1, females, in feed, site: liver, lesion: hepatocellular adenoma + hepatoblastoma + hepatocellular carcinoma, dosed 101 weeks, study length 104 weeks) 42.8 mg/kg/day; (mouse, strain B6C3F1, females, in feed, site: liver, lesion: hepatocellular adenoma + hepatocellular carcinoma, dosed 101 weeks, study length 104 weeks) 28.9 mg/kg/day; (mouse, strain B6C3F1, females, in feed, site: liver, lesion: hepatocellular adenoma, dosed 101 weeks, study length 104 weeks) 27.7 mg/kg/day. Also, the TD50 is 97.3 mg/kg/day (mouse, strain B6C3F1, females, in feed, site: liver, lesion: hepatocellular carcinoma, dosed 101 weeks, study length 104 weeks); 1150 mg/kg/day (mouse, strain B6C3F1, males, in feed, site: all sites, lesion: histiocytic sarcoma, dosed 101 weeks, study length 103 weeks); 77.6 mg/kg/day (mouse, strain B6C3F1, males, in feed, site: any site (literature study), lesion: several types, types named in the paper, dosed 101 weeks, study length 103 weeks); 60.2 mg/kg/day (mouse, strain B6C3F1, males, in feed, site: liver + thyroid gland, lesion: hepatocellular adenoma + hepatoblastoma + hepatocellular carcinoma + follicular-cell adenoma, dosed 101 weeks, study length 103 weeks); 24.7 mg/kg/day (mouse, strain B6C3F1, males, in feed, site: liver, lesion: hepatoblastoma + hepatocellular carcinoma, dosed 101 weeks, study length 103 weeks); 52.5 mg/kg/day (mouse, strain B6C3F1, males, in feed, site: liver, lesion: hepatoblastoma, dosed 101 weeks, study length 103 weeks). Further, the TD50 reads like this: (mouse, strain B6C3F1, males, in feed, site: liver, lesion: hepatocellular adenoma + hepatoblastoma + hepatocellular carcinoma, dosed 101 weeks, study length 103 weeks) 60.2 mg/kg/day; (mouse, strain B6C3F1, males, in feed, site: liver, lesion: hepatocellular adenoma + hepatocellular carcinoma, dosed 101 weeks, study length 103 weeks) 60.4 mg/kg/day; (mouse, strain B6C3F1, males, in feed, site: liver, lesion: hepatocellular adenoma, dosed 101 weeks, study length 103 weeks) 46.8 mg/kg/day; (mouse, strain B6C3F1, males, in feed, site: liver, lesion: hepatocellular carcinoma, dosed 101 weeks, study length 103 weeks) 55 mg/kg/day; (mouse, strain B6C3F1, males, in feed, site: lung, lesion: alveolar/bronchiolar adenoma + alveolar/bronchiolar carcinoma, dosed 101 weeks, study length 103 weeks) 1760 mg/kg/day; (mouse, strain B6C3F1, males, in feed, site: thyroid gland, lesion: follicular-cell adenoma, dosed 101 weeks, study length 103 weeks) 349 mg/kg/day. Moreover, the TD50 reads like this: (rat, strain Fischer 344, females, in feed, site: liver, lesion: hepatocellular adenoma + hepatoblastoma + hepatocellular carcinoma, dosed 101 weeks, study length 103 weeks) 4050 mg/kg/day; (rat, strain Fischer 344, males, in feed, site: adrenal medulla, lesion: pheochromocytoma benign, bilateral + pheochromocytoma, benign, dosed 99 weeks, study length 103 weeks) 20.8 mg/kg/day; (rat, strain Fischer 344, males, in feed, site: adrenal medulla, lesion: pheochromocytoma benign, bilateral + pheochromocytoma, malignant + pheochromocytoma, benign, dosed 99 weeks, study length 103 weeks) 20.8 mg/kg/day; (rat, strain Fischer 344, males, in feed, site: any site (literature study), lesion: several types, types named in the paper, dosed 99 weeks, study length 103 weeks) 15.4 mg/kg/day; (rat, strain Fischer 344, males, in feed, site: kidney, lesion: tubule adenoma + tubule carcinoma, dosed 99 weeks, study length 103 weeks) 522 mg/kg/day and 967 mg/kg/day; (rat, strain Fischer 344, males, in feed, site: kidney, lesion: tubule adenoma, dosed 99 weeks, study length 103 weeks) 1280 mg/kg/day and 1290 mg/kg/day. For the same compound, the TD50 is, setting by setting: (rat, strain Fischer 344, males, in feed, site: liver, lesion: hepatocellular adenoma + hepatoblastoma + hepatocellular carcinoma, dosed 99 weeks, study length 103 weeks) 138 mg/kg/day; (rat, strain Fischer 344, males, in feed, site: testis, lesion: interstitial-cell adenoma, bilateral + interstitial-cell adenoma, dosed 99 weeks, study length 103 weeks) 8.15 mg/kg/day; (rat, strain Fischer 344, males, in feed, site: thyroid gland, lesion: follicular-cell adenoma + follicular-cell carcinoma, dosed 99 weeks, study length 103 weeks) 80.2 mg/kg/day; (rat, strain Fischer 344, males, in feed, site: thyroid gland, lesion: follicular-cell adenoma, dosed 99 weeks, study length 103 weeks) 174 mg/kg/day. The carcinogen call (rat, strain Fischer 344, females, in feed, site: any site (literature study), lesion: several types, types named in the paper, dosed 101 weeks, study length 103 weeks) is “negative (inactive)”.

With `CCCCC(CC)COP(=O)(OCC(CC)CCCC)OCC(CC)CCCC` (stereo not drawn), the TD50 by setting is: (mouse, strain B6C3F1, females, by gavage, site: liver, lesion: hepatocellular adenoma + hepatocellular carcinoma + neoplastic nodule, dosed 103 weeks, study length 104 weeks) 2220 mg/kg/day; (mouse, strain B6C3F1, females, by gavage, site: liver, lesion: hepatocellular adenoma + hepatocellular carcinoma, dosed 103 weeks, study length 104 weeks) 2220 mg/kg/day; (mouse, strain B6C3F1, females, by gavage, site: liver, lesion: hepatocellular carcinoma, dosed 103 weeks, study length 104 weeks) 2560 mg/kg/day; (mouse, strain B6C3F1, females, by gavage, site: lung, lesion: alveolar/bronchiolar adenoma + alveolar/bronchiolar carcinoma, dosed 103 weeks, study length 104 weeks) 13700 mg/kg/day; (mouse, strain B6C3F1, males, by gavage, site: liver, lesion: hepatocellular adenoma + hepatocellular carcinoma + neoplastic nodule, dosed 103 weeks, study length 104 weeks) 9000 mg/kg/day; (rat, strain Fischer 344, females, by gavage, site: any site (literature study), lesion: several types, types named in the paper, dosed 103 weeks, study length 104 weeks) 230000 mg/kg/day (inactive). Besides, the TD50 was determined as 5290 mg/kg/day (rat, strain Fischer 344, males, by gavage, site: adrenal gland, lesion: pheochromocytoma + pheochromocytoma, malignant, dosed 103 weeks, study length 104 weeks); 5290 mg/kg/day (rat, strain Fischer 344, males, by gavage, site: adrenal gland, lesion: pheochromocytoma, dosed 103 weeks, study length 104 weeks); 14200 mg/kg/day (rat, strain Fischer 344, males, by gavage, site: any site (literature study), lesion: several types, types named in the paper, dosed 103 weeks, study length 104 weeks); 28000 mg/kg/day (rat, strain Fischer 344, males, by gavage, site: thyroid gland + thyroid follicle, lesion: follicular-cell adenoma + cystadenoma, NOS, dosed 103 weeks, study length 104 weeks); 16700 mg/kg/day (rat, strain Fischer 344, males, by gavage, site: thyroid gland + thyroid follicle, lesion: follicular-cell adenoma + follicular-cell carcinoma + cystadenoma, NOS, dosed 103 weeks, study length 104 weeks). The carcinogen call (mouse, strain B6C3F1, males, by gavage, site: any site (literature study), lesion: several types, types named in the paper, dosed 103 weeks, study length 104 weeks) is “negative (inactive)”.

As to `ClC1=C(Cl)C2(Cl)C3C(Cl)OC(Cl)C3C1(Cl)C2(Cl)Cl` (stereo not drawn), the carcinogen call (mouse, strain B6AKF1, females, oral dosing, site: any site (literature study), lesion: several types, types named in the paper, dosed 76 weeks, study length 76 weeks) is “negative (inactive)”; the carcinogen call (mouse, strain B6AKF1, females, oral dosing, site: liver, lesion: hepatoma, dosed 76 weeks, study length 76 weeks) is “negative (inactive)”; the carcinogen call (mouse, strain B6AKF1, females, oral dosing, site: lung, lesion: adenoma, dosed 76 weeks, study length 76 weeks) is “negative (inactive)”; the carcinogen call (mouse, strain B6AKF1, males, oral dosing, site: liver, lesion: hepatoma, dosed 76 weeks, study length 76 weeks) was “negative (inactive)”; the carcinogen call (mouse, strain B6C3F1, females, oral dosing, site: liver, lesion: hepatoma, dosed 76 weeks, study length 76 weeks) was “negative (inactive)”. The TD50 (mouse, strain B6AKF1, males, oral dosing, site: any site (literature study), lesion: several types, types named in the paper, dosed 76 weeks, study length 76 weeks) is 0.136 mg/kg/day (inactive); the TD50 (mouse, strain B6AKF1, males, oral dosing, site: lung, lesion: adenoma, dosed 76 weeks, study length 76 weeks) is 0.146 mg/kg/day (inactive); the TD50 (mouse, strain B6C3F1, females, oral dosing, site: any site (literature study), lesion: several types, types named in the paper, dosed 76 weeks, study length 76 weeks) is 0.277 mg/kg/day (inactive); the TD50 (mouse, strain B6C3F1, females, oral dosing, site: lung, lesion: adenoma, dosed 76 weeks, study length 76 weeks) is 0.571 mg/kg/day (inactive); the TD50 (mouse, strain B6C3F1, males, oral dosing, site: any site (literature study), lesion: several types, types named in the paper, dosed 76 weeks, study length 76 weeks) is 0.242 mg/kg/day (inactive); the TD50 (mouse, strain B6C3F1, males, oral dosing, site: liver, lesion: hepatoma, dosed 76 weeks, study length 76 weeks) is 0.5 mg/kg/day (inactive). Where the note is “mouse, strain B6C3F1, males, oral dosing, site: lung, lesion: adenoma, dosed 76 weeks, study length 76 weeks”, the TD50 was 0.5 mg/kg/day (inactive).

One may read the TD50 as the dose at which the toxic effect under study appears in half of the subjects.
